Test results as given in US20230128402A1 (The Trustees of Princeton University, priority 2020, published 2023).
Where two headings read alike, the source gives them in different places.

What was measured:
[1] = Toxicity experiments in C57Bl6 mice; format: in vivo, mouse; conditions: IP, ascending 12.5 to 200 mg/kg at 24h intervals; 25 mg/kg every 3 days for 18 days
Procedure: All mice were originally ordered from the Jackson Laboratory (Bar Harbor, Me.) and breeding was conducted in a specific pathogen-free (SPF) barrier facility. Toxicity experiments were performed on 8-12-week old male and female C57Bl6 mice. MBE1 was dissolved at 50 mg/mL in DMSO followed by a […] into Kolliphor EL, followed by a 1:5 dilution into PBS to yield a 5 mg/ml MBE1 solution, (10% DMSO, 10% Kolliphor EL, 80% PBS). This was administered via IP injection at ascending doses from 12.5 to 200 mg/kg body mass in a set of 3 mice at 24h intervals. Body condition score, food uptake, fecal/urine production, behavior and body weight were measured as toxicity readouts. Five mice were then treated every 3 days with 25 mg/kg MBE1 for 18 days.

SUM 159-M1a cells [2] = test: SUM 159-M1a xenograft metastasis, tail vein or intracardiac injection; format: in vivo, mouse; conditions: IP in conjunction with paclitaxel; FIGS. 9B and 10B
Procedure: All xenograft experiments were conducted on 8-week old female mice (athymic Nu/Nu, or NOD/SCID Gamma). Xenograft experiments were conducted using 125,000 SUM 159-M1a cells in 100 μL PBS for tail vein or intracardiac injection. Mice were randomized following injection. Bioluminescent imaging (BLI) was conducted using the IVIS 200 system and retroorbital luciferin injection. For drug treatment, MBE1 was given to mice via IP injection in conjunction with paclitaxel (5 mg/mL in 10% ethanol, 10% Kolliphor EL, 80% PBS) at the time intervals and dosages indicated in FIG. 9A (tail vein injection) and FIG. 10A (intracardiac injection).

[3] = Fast and refeed insulin secretion in db/db mice; format: in vivo, mouse; conditions: 40 mg per kg oral gavage once per day, 14 days
Procedure: C57/Bl6 mice homozygous for the spontaneous mutation (Lepr^db, referred to as db/db) that develop severe obesity and Type 2 Diabetes within 12 weeks were raised through standard husbandry practice and we separated into two groups followed by acclimatization for 9 days in single housing.
Daily food intake and body mass were monitored each day and baseline levels of plasma insulin and glucose were monitored to confirm identical group characteristics.
Compound MBE1 was dissolved to 200 mg/mL in DMSO followed by suspension into a 0.5% methycellulose, 0.5% Tween-80 solution. Mice were treated via oral gavage once per day to achieve 40 mg per kg body mass MBE1 or were treated with vehicle control. Mouse body mass and food consumption were monitored daily over 14 days.
At Day 14, food was removed from mouse cages for 16 hours, and then food was reintroduced. Plasma insulin levels were assayed by ELISA at baseline and at 1 hour, 2 hour and 4 hours following provision of chow and ad libitum feeding.

SUM 159-M1a cells [4] = conditions: shown in PCT/US2019/044278; cited from earlier work
[5] = Pharmacokinetic profiling in mice
ALDH1a3 [6] = target: T1, ALDH1a3 (Homo sapiens, UniProt P47895); test: ALDEFLUOR assay in SUM159-M1a-Aldh1a3 cells; format: cell-based; set-up: lentiviral vectors containing either the vector backbone or full-length human Aldh1a3; expressed in transfected cells; host or cells: SUM159-M1a human breast cancer cells, lentiviral pLex vector; conditions: for inhibition of ALDH1a3 activity (percentage of ALDEFLUOR-positive cells): 100 nM, FIG. 6A; for inhibitory activity detected at concentrations as low as: SUM 159-M1a-Aldh1a3 cells, FIG. 6B
T1 sequence (P47895 1-512): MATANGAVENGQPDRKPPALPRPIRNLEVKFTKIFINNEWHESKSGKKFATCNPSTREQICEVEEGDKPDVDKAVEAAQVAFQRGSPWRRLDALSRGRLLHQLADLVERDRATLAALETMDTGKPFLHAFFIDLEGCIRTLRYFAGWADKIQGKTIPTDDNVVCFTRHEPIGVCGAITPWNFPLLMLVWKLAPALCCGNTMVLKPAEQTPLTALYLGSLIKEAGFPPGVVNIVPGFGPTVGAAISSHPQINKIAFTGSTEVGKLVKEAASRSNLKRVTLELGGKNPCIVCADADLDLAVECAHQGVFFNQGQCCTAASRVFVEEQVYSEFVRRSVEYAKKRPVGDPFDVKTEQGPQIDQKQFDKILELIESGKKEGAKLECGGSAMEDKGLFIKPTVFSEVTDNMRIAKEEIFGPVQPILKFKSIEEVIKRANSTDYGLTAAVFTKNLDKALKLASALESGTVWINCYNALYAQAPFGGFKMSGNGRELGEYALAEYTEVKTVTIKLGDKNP
Procedure: (§1) Cells were counted, centrifuged and resuspended at 1,000,000 cells/mL in ALDEFLUOR™ buffer (Stemcell Technologies). ALDEFLUOR™ substrate (Stemcell Technologies, 1:200) and test compound or 1 mM DEAB were added to cell suspension and incubated at 37° C. for 45 minutes with vortexing every 15 minutes. Cells were centrifuged and resuspended in ALDEFLUOR™ buffer with DAPI at 5 μg/mL. Samples were analyzed with the BD LSR2 flow cytometry platform. Gating was performed using DEAB as a negative control.
(§2) Gating for background fluorescence was performed using 1 millimolar DEAB as a negative control.
The [inh-min]threshold was set at the lower bound of two standard deviations of control samples, while the IC50 threshold was set at 50% of the average of control samples.
An ALDEFLUOR™ assay was also used to assess the relative activity of several compounds described herein against SUM159-M1a-Aldh1a3 cells.

SUM 159-M1-p44 cells = test: SUM 159-M1-p44 tail-vein lung metastasis xenograft; format: in vivo, mouse; conditions: 50 mg/kg with 25 mg/kg paclitaxel on days 17, 19 and 21
Procedure: In another xenograft experiment, mice were injected with SUM 159-M1-p44 cells via tail-vein injection, as described above, and randomized following injection. Metastatic burden was imaged on day 16 via intravital imaging. Mice were then treated with paclitaxel (25 mg/kg) and either vehicle or MBE1.5 (50 mg/kg) on days 17, 19 and 21. Lung metastatic burden was then imaged on day 22. Signals were normalized to day 16.

MDA-MB-468 cells = test: MDA-MB-468 mammary fat pad primary tumor xenograft; format: in vivo, mouse; conditions: 25 mg/kg daily, 12 days
Procedure: In yet another xenograft experiment, mice were injected with MDA-MB-468 cells via mammary fat pad, and were randomized following injection. […] Primary tumor measurements were taken by caliper between each treatment group.

[7] = test system: Sum-159-M1a-Aldh 1a3 cells; test: Sum-159-M1a-Aldh1a3 tail-vein lung metastasis xenograft; format: in vivo, mouse; conditions: 25 mg/kg daily, 12 days, with paclitaxel 12.5 mg/kg every other day
Procedure: In another xenograft experiment, mice were injected with Sum-159-M1a-Aldh 1a3 cells via tail-vein injection, and were randomized following injection. Mice were treated with MBE1.5 (25 mg/kg daily) or vehicle, and paclitaxel (12.5 mg/kg every other day) for twelve days. Lung metastasis progression was tracked by intravital bioluminescence.

HCT116 cells = test: HCT116 left ventricle injection metastasis xenograft; format: in vivo, mouse; conditions: 50 mg/kg subcutaneously every day, paclitaxel 25 mg/kg every three days
Procedure: In another xenograft experiment, mice were injected HCT116 cells via left ventricle injection and monitored with BLI on a weekly basis during the experiment. MBE1.5 or vehicle control were injected subcutaneously every day following injection at 50 mg/kg. At day 7 following injection, paclitaxel was dosed at 25 mg/kg every three days for a total of 6 injections. N=10 mice per group.

HEK293T cells = test: LC-MS metabolite quantification in HEK293T cells; format: cell-based; conditions: 10 uM, 1 hour
Procedure: HEK293T cells were grown to full confluence and media was exchanged with complete DMEM media supplemented with 10% dialyzed fetal bovine serum. Three replicate plates per group were treated with 10 uM MBE1.5 or control DMSO for 1 hour followed by organic extraction with 40:40:20 methanol:acetonitrile:water w/0.5% formic acid (ice cold). Plates were immediately transferred to ice and incubated for 5 minutes then 50 ul 15% NH4HCO3 was added. Cells lysates were scraped and centrifuged at 15000 RCF. Supernatants were then analyzed via LC-MS to quantify various metabolites using standard metabolomic protocols.

ALDH1a3 [8] = target: T2, ALDH1a3 (Mus musculus, UniProt Q9JHW9); test: ALDEFLUOR assay on pancreatic cells from diabetic and lean mice; format: cell-based; conditions: 10 μM; diabetic vs healthy mice
T2 construct: from tissue; host or cells: pancreatic cells from C57/BL6 mice (diet-induced diabetic and lean)
T2 sequence (Q9JHW9 1-512): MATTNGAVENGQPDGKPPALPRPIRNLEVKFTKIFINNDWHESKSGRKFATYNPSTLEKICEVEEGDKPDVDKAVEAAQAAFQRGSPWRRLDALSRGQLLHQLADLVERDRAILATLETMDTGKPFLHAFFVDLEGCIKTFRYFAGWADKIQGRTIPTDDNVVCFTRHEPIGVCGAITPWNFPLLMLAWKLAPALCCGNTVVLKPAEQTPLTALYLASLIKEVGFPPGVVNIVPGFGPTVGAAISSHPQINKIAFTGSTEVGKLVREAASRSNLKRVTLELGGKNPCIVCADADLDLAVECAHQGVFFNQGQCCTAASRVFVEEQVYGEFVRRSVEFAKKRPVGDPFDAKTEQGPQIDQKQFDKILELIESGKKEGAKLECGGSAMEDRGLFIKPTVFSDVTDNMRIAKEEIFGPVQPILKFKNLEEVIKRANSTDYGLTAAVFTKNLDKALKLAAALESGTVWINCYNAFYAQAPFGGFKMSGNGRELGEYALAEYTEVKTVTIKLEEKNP
Procedure: In the ALDEFLUOR™ assay used in this example, 14 month-old C57/BL6 high fat diet-induced severe obese/diabetic mice and 3 month-old lean C57/B16 mice were euthanized and pancreatic cells were extracted with 1 mg/mL Collagenase 1 digestion in PBS for 1 hour at 37 C. Single cell suspensions were obtained by filtration through 40 μm cell sieves. Cells were washed by two sequential centrifugations and resuspension in PBS.
as §1, with “compound (MBE 1.5 at 10 μM” for “compound”, “platform.” for “platform. Gating was performed using DEAB as a negative control.”
as §2

[9] = male, CD-1/C57BL/6, mouse, in vivo
in vivo = conditions: male, CD-1/C57BL/6, mouse
[10] = SUM159-M1a-Aldh1a3 cells, compound at 100 nM
[11] = with paclitaxel 12.5 mg/kg every other day

For `CCc1cnccc1C(=O)Nc1cc2c(cc1F)NC(=O)CC2` [Compound 1, 3-ethyl-N-(7-fluoro-2-oxo-3,4-dihydro-1H-quinolin-6-yl)pyridine-4-carboxamide], the “acute or chronic toxicity” value [1] was “Neither experiment showed any indication of either acute or chronic toxicity”, the “lung and bone metastasis (BLI)” value (SUM 159-M1a cells [2]) was “effective therapeutic to treat established metastatic disease” and the “plasma insulin after fast and refeed challenge (ELISA)” value [3] was “effectively improve insulin secretion”. For the same compound, the “metastatic lesions in mice” value (SUM 159-M1a cells [4]) was “shrink metastatic lesions in mice without toxicity”, the “cage side observations, adverse reactions” value ([5]; 10 mg/kg oral gavage or 1 mg/kg intravenous, 0 hours to 24 hours post-dosing) was “no adverse reactions” and the half-life ([5]; male, CD-1/C57BL/6, mouse, plasma, iv, 1 mg/kg) was 1.79 h. The bioavailability ([5]; male, CD-1/C57BL/6, mouse, plasma, oral, 10 mg/kg) was 88%, the half-life ([5]; male, CD-1/C57BL/6, mouse, plasma, po, 10 mg/kg) was 1.37 h and the “time plasma concentrations exceed 5-fold the IC50” value ([5]; mice, oral gavage (PO) and intravenous (IV)) was > 10 h. The “inhibition of ALDH1a3 activity (percentage of ALDEFLUOR-positive cells)” value (ALDH1a3 [6]) was “high-affinity compounds for the inhibition of ALDH1a3 activity”, the “inhibitory activity detected at concentrations as low as” value (ALDH1a3 [6]) was 2 nM and the “Inhi-bitory Activity at 100 nM (%)” value (ALDH1a3 [6]; [10]) was 99%. The “Percent of Cells Positive for ALDEFLUOR ™ at 100 nM” value (ALDH1a3 [6]; [10]) was 0.73%.

For `CCc1ccccc1C(=O)Nc1cc2c(cc1F)NC(=O)CC2` [Compound 4, 2-ethyl-N-(7-fluoro-2-oxo-3,4-dihydro-1H-quinolin-6-yl)benzamide], the “lung metastatic burden (BLI)” value (SUM 159-M1-p44 cells) was “caused regression of established metastatic disease”, the tumors completely eliminated (MDA-MB-468 cells; n=6, with paclitaxel) was “tumors of two mice in the MBE1.5 treatment group were completely eliminated” and the “gross toxicity (body mass)” value (MDA-MB-468 cells; [11]) was “no gross toxicity”. For the same compound, the primary tumor volume (MDA-MB-468 cells; [11]) was “caused regression of primary breast tumors”, the survival [7] was “extended survival in mice with late-stage established breast cancer lung metastasis” and the “colorectal cancer metastasis (BLI)” value (HCT116 cells) was “slows colorectal cancer metastasis”. The “NADH (LC-MS)” value (HEK293T cells) was “depletion of NADH”, the “adipate semialdehyde (LC-MS)” value (HEK293T cells) was “increases in adipate semialdehyde” and the “percentage of ALDEFLUOR-positive pancreatic islet cells” value (ALDH1a3 [8]) was “high-affinity compound for the inhibition of ALDH1a3 activity”. The “time plasma concentrations exceed 5-fold the IC50” value [9] was > 10 h, the bioavailability (in vivo) was 62.5% and the half-life (in vivo; iv, 1 mg/kg) was 1.22 h. The half-life (in vivo; po, 10 mg/kg) was 1.7 h, the “inhibition of ALDH1a3 activity (percentage of ALDEFLUOR-positive cells)” value (ALDH1a3 [6]) was “high-affinity compounds for the inhibition of ALDH1a3 activity” and the “inhibitory activity detected at concentrations as low as” value (ALDH1a3 [6]) was 2 nM.
